Measurements as given in ChEMBL document CHEMBL1201862, “PubChem BioAssay data set” (2004).
Calls of active or inactive are those of the source.

Tests used:
Vero [1] = test: host cell cytotoxicity of antiviral hits, dose response, cytotoxicity control for West Nile virus antiviral project, secondary assay (AID 1650); type: functional; conditions: Chlorocebus sabaeus
Vero [2] = test: West Nile virus antiviral activity, cell-based, CPE readout (AID 1621); type: functional; conditions: Chlorocebus sabaeus
[3] = target: Solute carrier family 12 member 2/member 5 (Homo sapiens, UniProt P55011+Q9H2X9); test: KCC2 and NKCC1 inhibition by rubidium flux, cell-based, NKCC1 counter-screen (AID 1734); type: functional, HEK293
Genome polyprotein = Genome polyprotein (Hepatitis C virus, UniProt Q2Q167); test: HCV core protein dimerization inhibitors, dose response, biochemical, TR-FRET (AID 2159); set-up: species or system Hepacivirus hominis;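 further: blocks dimerization of HCV core protein measured by TR-FRET between tagged core106 pairs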
[4] = target: Peroxisome proliferator-activated receptor gamma/Nuclear receptor coactivator 2 (Homo sapiens, UniProt P37231); type: functional;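 further: agonist potency for raising coactivator recruitment to the receptor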
[5] = target: Peroxisome proliferator-activated receptor gamma/Nuclear receptor coactivator 3 (Homo sapiens, UniProt P37231); type: functional;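 further: agonist potency for raising coactivator recruitment to the receptor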
[6] = target: Peroxisome proliferator-activated receptor gamma/Nuclear receptor coactivator 1 (Homo sapiens, UniProt P37231); type: functional;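 further: agonist potency as compounds enhance coactivator SRC-1 recruitment to PPARgamma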
[7] = inhibitors of intracellular T. cruzi replication, confirmation, NIH3T3 host cells, beta-gal luminescence (AID 2044); type: functional, cell-based;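 further: intracellular parasites grown in NIH/3T3 mouse fibroblasts as host cells; luminescent beta-galactosidase reporter signal from transgenic T. cruzi replicating inside host cells; inhibitors lower the luminescence signal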
[8] = cytotoxicity toward NIH3T3 fibroblasts, dose response, counter-screen, cell-based, ATP luminescence, mouse fibroblasts (AID 2010); type: functional;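 further: cells exposed to compound for about 90 hours before reading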
NADPH oxidase 1 [9] = target: T1, NADPH oxidase 1 (Homo sapiens, UniProt Q9Y5S8); type: functional, cell-based
NADPH oxidase 1 [10] = target: T1, NADPH oxidase 1; test: Luminescence-based cell-based dose response assay to identify inhibitors of NADPH oxidase 1 (NOX1).; type: functional
[11] = target: T2, Rac GTPase-activating protein 1 (Homo sapiens, UniProt Q9H0H5); test: MgcRacGAP GTPase-activating activity inhibitors, confirmation, biochemical, ADP Hunter fluorescence, primary and confirmatory (AID 624330); type: functional
T2 sequence (Q9H0H5 whole entry): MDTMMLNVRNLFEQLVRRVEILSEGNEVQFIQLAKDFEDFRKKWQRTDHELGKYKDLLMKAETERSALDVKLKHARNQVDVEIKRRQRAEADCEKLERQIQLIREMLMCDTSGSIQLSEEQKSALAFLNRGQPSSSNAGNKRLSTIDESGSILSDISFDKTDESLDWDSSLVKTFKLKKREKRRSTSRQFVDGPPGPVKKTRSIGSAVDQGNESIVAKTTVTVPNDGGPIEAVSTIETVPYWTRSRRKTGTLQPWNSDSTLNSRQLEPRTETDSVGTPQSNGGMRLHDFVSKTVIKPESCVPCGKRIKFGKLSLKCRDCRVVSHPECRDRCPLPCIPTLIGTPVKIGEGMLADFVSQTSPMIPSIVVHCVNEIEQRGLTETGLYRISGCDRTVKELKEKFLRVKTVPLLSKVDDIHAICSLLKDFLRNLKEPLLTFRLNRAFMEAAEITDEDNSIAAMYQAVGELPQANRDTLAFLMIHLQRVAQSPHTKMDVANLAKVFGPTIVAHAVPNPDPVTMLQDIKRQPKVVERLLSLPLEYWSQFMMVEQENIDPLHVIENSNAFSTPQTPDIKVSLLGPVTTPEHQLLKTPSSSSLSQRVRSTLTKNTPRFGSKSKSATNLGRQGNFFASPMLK

[12] = target: Neuropeptide Y receptor type 2 (Homo sapiens, UniProt P49146); type: functional, cell-based;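 further: HEK293 cells expressing the receptor and a CNG channel; stimulus was NPY near EC95 followed by isoproterenol to raise cAMP; antagonist potency measured as restoring cAMP signal that NPY suppresses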
[13] = target: Neuropeptide Y receptor type 1 (Homo sapiens, UniProt P25929); type: functional;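 further: HEK293 cells with a CNG channel challenged with NPY then isoproterenol; potency as antagonist that reverses NPY suppression of cAMP signal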
[14] = target: ATP-sensitive inward rectifier potassium channel 1 (Homo sapiens, UniProt P48048); test: ROMK inhibition by analog compounds, SAR follow-up, cell-based, thallium flux, analog library (AID 435017); type: functional
SUMO-activating enzyme = SUMO-activating enzyme (Homo sapiens, UniProt Q9UBT2); test: SUMOylation inhibitor hit validation, confirmation, SUMOylation inhibitor project, biochemical, AlphaScreen (AID 2018); type: functional
[15] = target: Sphingosine 1-phosphate receptor 3 (Homo sapiens, UniProt Q99500); test: Dose response cell-based high throughput screening assay for antagonists of the Sphingosine 1-Phosphate Receptor 3 (S1P3). [Related pubchem assays: 1429, 485 ]; type: functional
[16] = target: Disintegrin and metalloproteinase domain-containing protein 17 (Homo sapiens, UniProt P78536); test: exosite inhibitors of ADAM17, dose response, biochemical (AID 743260)
[17] = target: 5-hydroxytryptamine receptor 1E (Homo sapiens, UniProt P28566); test: Counterscreen assay for S1P3 antagonists: Dose response cell-based high throughput screening assay to identify antagonists of the 5-Hydroxytryptamine Receptor Subtype 1E (5HT1E). [Related pubchem assays: 1429, 485 ]; type: functional
[18] = ADAM10 protease inhibitors, dose response, selectivity assay for ADAM17 exosite inhibitor project, biochemical, FRET peptide substrate, recombinant human ADAM10 (AID 743259);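 further: ADAM10 enzyme cleaving a FRET peptide substrate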
Cytochrome P450 2D6 = Cytochrome P450 2D6 (Homo sapiens, UniProt P10635);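 further: CYP2D6 member of a cytochrome P450 panel assay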
Cytochrome P450 2C9 = Cytochrome P450 2C9 (Homo sapiens, UniProt P11712)
[19] = target: Luciferin 4-monooxygenase (Photinus pyralis, UniProt P08659); test: Counter Screen for Luciferase-based Assay Positives. [Related pubchem assays: 620, 618, 411 ]
HT-1080 = test: cytotoxicity in HT1080 fibrosarcoma cells, cell-based, fluorescence readout (AID 620); type: functional; conditions: Homo sapiens
[20] = target: Voltage-gated inwardly rectifying potassium channel KCNH2 (Homo sapiens, UniProt Q12809); test: hERG protection from proarrhythmic block, potency, dose response, cell-based, thallium flux (AID 2121); type: ADME
[21] = C. albicans growth with fluconazole, confirmation, fluorescence, retest (AID 2467); type: functional, cell-based
cells [22] = type: functional, cell-based
cells [23] = type: functional, cell-based; remark: listed apart in the source
[24] = NIH-3T3 fibroblast cytotoxicity, dose response, cytotoxicity control, cell-based, fluorescence, Alamar Blue, secondary assay (AID 2327); type: functional;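 further: NIH-3T3 mouse fibroblasts cultured with fluconazole at 8 µg/mL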
[25] = target: Aryl hydrocarbon receptor (Homo sapiens, UniProt P35869); test: Luminescence-based cell-based high throughput dose response assay for activators of the Aryl Hydrocarbon Receptor (AHR). [Related pubchem assays: 2796 (Primary screen (AHR activators in singlicate)), 2845 (Confirmation screen (AHR activators in triplicate)), 434939 (Counterscreen (PXR activators in triplicate)), 2804 (Summary (AHR activators))]; type: ADME
[26] = target: T3, Long-chain-fatty-acid--AMP ligase FadD28 (Mycobacterium tuberculosis, UniProt P9WQ59); test: Fluorescence polarization aasay to screen for inhibitors that compete for the binding of FadD28 to a bisubstrate Measured in Biochemical System Using Plate Reader - 2147-01_Inhibitor_Dose_CherryPick_Activity.; type: functional, Mycobacterium tuberculosis H37Rv
T3 sequence (P9WQ59 whole entry): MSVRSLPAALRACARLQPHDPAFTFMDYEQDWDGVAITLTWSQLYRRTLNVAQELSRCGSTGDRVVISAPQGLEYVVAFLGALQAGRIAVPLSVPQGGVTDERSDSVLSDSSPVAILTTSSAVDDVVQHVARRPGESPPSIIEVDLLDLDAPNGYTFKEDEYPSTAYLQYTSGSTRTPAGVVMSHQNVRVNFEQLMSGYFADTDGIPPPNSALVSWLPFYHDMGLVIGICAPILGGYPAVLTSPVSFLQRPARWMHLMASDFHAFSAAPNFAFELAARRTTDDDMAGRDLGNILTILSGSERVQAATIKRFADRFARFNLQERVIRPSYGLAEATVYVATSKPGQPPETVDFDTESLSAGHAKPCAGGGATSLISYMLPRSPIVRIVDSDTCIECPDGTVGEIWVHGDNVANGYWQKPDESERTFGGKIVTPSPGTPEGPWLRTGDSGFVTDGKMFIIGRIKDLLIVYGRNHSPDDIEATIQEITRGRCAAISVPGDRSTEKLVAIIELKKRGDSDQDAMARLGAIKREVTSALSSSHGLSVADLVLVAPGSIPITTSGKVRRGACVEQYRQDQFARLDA

Ion channel NompC = Ion channel NompC (Danio rerio, UniProt Q7T1G6); test: Fluorescence counterscreen assay for TRPML3 agonists: dose response cell-based high-throughput screening assay to identify agonists of the transient receptor potential channel N1 (TRPN1). [Related pubchem assays: 1526, 1424, 1448 ]; type: functional
Mucolipin-3 = Mucolipin-3 (Homo sapiens, UniProt Q8TDD5); test: Dose response cell-based high-throughput screening assay for agonists of the transient receptor potential channel ML3 (TRPML3). [Related pubchem assays: 1526, 1424, 1448 ]; type: functional
cells [27] = test: cells
[28] = target: T4, Mannose-6-phosphate isomerase (Homo sapiens, UniProt P34949); test: human PMI inhibitors, high substrate, primary screen, biochemical, fluorescence intensity, high mannose 6-phosphate (AID 1220)
T4 sequence (P34949 whole entry): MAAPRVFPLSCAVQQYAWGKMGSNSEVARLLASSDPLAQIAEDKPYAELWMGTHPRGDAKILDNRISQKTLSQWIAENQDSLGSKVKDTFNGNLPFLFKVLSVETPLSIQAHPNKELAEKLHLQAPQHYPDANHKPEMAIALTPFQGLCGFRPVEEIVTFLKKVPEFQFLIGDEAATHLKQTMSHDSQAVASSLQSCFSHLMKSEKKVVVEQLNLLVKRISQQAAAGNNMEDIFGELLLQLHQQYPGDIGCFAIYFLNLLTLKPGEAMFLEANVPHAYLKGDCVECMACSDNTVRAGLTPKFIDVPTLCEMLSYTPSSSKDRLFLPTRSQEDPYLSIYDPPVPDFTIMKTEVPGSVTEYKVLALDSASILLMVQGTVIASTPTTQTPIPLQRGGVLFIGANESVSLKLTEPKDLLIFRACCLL

[29] = HEp-2 cell cytotoxicity, dose response, cytotoxicity control for RSV inhibitor project, HTS (AID 2410); type: functional; conditions: human respiratory syncytial virus
[30] = target: Photoreceptor-specific nuclear receptor (Homo sapiens, UniProt Q9Y5X4); type: functional, cell-based;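 further: CHO-S cells with Gal4-NCOR and VP16-NR2E3 two-hybrid luciferase reporter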
[31] = Luminescence-based dose response cell-based high throughput screening assay for cytotoxic compounds using the IEC-6 intestinal epithelial cell line. [Related pubchem assays: 1858 (Summary AID.), 1825 (Counterscreen.), 1907 (Confirmation screen.)]; type: functional
[32] = target: T4, Mannose-6-phosphate isomerase; test: inhibitors of human PMI, primary screen, biochemical, fluorescence intensity, coupled assay (AID 1209)
[33] = A549 cell cytotoxicity, dose response, CellTiter-Glo luminescence, dry powder, set 17 (AID 1117284); type: functional, cell-based
[34] = P. falciparum Dd2 growth inhibitors, dose response, SYBR Green, dry powder samples, set 9 (AID 1159568); type: functional, cell-based
[35] = HeLa 4N DNA content increase, dose response, cell-based, IC50 (AID 1117351); type: functional
[36] = HeLa 2N DNA content increase, dose response, cell-based, IC50 (AID 1117349); type: functional

T1 sequence (Q9Y5S8 whole entry): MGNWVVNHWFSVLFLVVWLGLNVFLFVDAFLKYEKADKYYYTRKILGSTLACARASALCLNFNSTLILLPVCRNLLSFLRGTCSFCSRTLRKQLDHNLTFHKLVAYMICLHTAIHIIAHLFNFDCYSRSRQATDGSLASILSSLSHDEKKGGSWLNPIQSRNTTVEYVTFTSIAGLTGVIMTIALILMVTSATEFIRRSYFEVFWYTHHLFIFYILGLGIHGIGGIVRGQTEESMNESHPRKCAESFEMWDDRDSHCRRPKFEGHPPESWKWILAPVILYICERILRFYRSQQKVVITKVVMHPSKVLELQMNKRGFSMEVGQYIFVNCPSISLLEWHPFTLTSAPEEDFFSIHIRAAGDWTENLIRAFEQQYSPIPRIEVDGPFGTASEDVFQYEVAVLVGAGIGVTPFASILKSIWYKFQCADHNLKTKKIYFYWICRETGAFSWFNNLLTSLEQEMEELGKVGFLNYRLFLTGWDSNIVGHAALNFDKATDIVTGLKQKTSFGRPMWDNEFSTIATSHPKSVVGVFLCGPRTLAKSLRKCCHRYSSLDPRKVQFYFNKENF
Sequence of Disintegrin and metalloproteinase domain-containing protein 17 (P78536 whole entry, the tested form may be a part): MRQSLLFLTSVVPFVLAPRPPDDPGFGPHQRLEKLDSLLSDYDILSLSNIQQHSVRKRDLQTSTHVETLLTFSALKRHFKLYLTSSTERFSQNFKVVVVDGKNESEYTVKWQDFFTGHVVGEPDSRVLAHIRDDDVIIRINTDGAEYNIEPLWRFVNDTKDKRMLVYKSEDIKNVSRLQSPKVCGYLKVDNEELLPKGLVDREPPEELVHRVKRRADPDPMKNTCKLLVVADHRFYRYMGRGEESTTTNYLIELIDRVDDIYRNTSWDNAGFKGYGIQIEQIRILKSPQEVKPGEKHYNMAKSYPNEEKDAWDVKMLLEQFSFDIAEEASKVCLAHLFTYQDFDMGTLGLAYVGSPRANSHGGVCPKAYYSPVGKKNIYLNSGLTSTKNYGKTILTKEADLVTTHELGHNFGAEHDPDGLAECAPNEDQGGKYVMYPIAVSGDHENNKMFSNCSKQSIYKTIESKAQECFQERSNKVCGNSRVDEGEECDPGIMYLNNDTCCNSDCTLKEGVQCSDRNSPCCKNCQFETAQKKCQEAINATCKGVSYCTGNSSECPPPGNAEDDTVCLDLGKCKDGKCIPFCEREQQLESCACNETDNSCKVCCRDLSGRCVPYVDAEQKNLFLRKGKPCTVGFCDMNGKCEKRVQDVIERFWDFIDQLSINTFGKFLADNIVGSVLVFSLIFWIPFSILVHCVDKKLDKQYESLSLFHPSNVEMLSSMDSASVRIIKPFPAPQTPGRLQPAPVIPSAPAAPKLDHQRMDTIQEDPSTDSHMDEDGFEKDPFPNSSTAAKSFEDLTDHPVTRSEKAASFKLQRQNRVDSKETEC
Sequence of Ion channel NompC (Q7T1G6 whole entry): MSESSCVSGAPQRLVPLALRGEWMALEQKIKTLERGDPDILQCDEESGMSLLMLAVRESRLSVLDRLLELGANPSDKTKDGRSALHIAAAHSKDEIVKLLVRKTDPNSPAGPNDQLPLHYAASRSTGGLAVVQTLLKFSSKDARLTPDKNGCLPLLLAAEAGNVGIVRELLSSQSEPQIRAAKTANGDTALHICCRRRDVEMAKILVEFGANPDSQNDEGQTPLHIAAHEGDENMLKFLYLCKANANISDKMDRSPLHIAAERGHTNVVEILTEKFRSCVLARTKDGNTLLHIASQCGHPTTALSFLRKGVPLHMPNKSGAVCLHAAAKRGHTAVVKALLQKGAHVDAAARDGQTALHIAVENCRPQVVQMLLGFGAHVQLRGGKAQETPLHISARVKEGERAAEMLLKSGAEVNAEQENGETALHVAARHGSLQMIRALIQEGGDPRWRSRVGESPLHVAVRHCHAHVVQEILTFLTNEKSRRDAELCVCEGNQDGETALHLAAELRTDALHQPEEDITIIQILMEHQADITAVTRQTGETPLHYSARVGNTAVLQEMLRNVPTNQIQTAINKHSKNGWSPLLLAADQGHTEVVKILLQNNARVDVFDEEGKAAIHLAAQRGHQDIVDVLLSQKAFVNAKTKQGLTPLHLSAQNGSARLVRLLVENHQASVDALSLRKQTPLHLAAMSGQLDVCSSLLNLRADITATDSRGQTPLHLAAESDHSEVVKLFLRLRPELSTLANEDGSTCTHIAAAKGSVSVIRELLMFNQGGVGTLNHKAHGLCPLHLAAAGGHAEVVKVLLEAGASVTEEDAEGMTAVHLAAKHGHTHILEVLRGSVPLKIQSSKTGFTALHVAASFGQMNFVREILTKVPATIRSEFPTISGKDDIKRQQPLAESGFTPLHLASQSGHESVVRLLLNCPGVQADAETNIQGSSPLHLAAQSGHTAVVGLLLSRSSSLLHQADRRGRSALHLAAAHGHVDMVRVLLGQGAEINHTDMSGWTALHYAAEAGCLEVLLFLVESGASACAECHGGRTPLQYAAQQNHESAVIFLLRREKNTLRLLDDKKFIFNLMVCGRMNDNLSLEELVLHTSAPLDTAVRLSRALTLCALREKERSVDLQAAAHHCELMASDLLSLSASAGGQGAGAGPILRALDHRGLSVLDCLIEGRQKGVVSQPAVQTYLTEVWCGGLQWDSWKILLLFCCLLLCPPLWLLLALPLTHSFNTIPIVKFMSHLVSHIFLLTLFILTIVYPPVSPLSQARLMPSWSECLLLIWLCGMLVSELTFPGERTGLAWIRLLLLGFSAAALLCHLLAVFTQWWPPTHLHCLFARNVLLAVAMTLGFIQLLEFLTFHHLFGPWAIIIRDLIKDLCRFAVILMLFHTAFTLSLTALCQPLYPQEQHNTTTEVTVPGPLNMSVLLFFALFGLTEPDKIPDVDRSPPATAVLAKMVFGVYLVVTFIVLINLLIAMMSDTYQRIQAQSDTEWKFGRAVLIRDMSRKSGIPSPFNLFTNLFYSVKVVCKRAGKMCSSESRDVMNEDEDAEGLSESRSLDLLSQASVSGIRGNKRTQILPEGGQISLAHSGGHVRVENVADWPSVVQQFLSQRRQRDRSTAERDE
Sequence of Cytochrome P450 2C9 (P11712 whole entry): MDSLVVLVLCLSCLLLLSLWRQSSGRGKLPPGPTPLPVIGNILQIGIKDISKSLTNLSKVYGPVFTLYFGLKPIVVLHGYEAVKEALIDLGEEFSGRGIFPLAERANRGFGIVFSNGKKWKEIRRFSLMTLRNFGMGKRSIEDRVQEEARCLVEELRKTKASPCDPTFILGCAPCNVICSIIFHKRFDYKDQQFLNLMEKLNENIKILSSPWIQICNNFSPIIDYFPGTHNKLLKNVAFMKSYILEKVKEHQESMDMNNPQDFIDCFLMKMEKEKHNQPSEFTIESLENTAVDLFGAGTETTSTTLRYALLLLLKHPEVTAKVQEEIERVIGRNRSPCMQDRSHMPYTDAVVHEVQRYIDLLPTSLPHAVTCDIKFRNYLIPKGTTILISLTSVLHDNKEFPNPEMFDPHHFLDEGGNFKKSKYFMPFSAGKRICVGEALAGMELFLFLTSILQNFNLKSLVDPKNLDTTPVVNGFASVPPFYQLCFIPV
Sequence of Voltage-gated inwardly rectifying potassium channel KCNH2 (Q12809 whole entry): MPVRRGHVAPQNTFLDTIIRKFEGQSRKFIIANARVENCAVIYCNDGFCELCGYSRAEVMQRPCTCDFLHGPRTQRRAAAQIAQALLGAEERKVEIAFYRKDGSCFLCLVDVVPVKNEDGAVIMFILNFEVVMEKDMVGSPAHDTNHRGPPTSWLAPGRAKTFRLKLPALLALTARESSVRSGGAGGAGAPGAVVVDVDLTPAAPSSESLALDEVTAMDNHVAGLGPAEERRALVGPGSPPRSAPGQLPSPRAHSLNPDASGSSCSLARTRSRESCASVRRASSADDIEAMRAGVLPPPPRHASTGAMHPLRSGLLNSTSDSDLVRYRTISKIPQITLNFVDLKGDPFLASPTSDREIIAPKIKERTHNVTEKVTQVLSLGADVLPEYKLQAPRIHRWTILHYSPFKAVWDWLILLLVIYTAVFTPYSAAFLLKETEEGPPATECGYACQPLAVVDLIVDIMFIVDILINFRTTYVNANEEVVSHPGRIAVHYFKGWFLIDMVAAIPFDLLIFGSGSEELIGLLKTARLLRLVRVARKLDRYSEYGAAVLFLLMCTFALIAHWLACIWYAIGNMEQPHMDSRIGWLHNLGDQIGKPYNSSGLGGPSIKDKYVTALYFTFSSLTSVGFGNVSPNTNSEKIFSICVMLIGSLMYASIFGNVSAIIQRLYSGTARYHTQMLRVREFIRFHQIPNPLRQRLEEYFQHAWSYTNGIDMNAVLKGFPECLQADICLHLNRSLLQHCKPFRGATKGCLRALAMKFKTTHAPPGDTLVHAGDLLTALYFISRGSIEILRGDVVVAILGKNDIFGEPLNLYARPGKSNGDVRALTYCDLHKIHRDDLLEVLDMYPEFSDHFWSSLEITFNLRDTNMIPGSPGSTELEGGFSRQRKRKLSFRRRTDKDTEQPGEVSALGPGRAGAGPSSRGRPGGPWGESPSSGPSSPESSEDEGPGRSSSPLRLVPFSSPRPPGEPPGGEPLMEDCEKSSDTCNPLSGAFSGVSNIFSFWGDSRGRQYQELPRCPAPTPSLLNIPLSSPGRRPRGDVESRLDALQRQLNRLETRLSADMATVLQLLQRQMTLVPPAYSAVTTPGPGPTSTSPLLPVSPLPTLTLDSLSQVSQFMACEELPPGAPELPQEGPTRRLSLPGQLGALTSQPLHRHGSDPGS
Sequence of Genome polyprotein (Q2Q167 whole entry): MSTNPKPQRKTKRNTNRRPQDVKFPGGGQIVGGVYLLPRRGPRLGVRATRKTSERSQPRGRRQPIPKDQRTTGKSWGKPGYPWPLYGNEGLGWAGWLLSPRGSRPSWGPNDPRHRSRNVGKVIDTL

CCC1CCCCN1CCCNC(=O)c1cc2c(Cl)nc3ccccc3c2s1 (stereo not given)
CC50 (Vero [1]): 12.7 µM (active)
IC50 (Vero [2]): 8.75 µM (active)

O=C(Cn1cnc2c(nnn2Cc2ccccc2)c1=O)c1ccc(Cl)cc1
IC50 [3]: 1.2 µM (active)

Cc1cc(OCC(=O)Nc2cc(-c3nn4c(C)nnc4s3)ccc2C)ccc1Cl
IC50 (Genome polyprotein): > 49.8 µM (not active)
EC50 [4]: 10.1 µM (not active)
EC50 [5]: 8.97 µM (active)
EC50 [6]: 9.05 µM (active)

CCOC(=O)Nc1ccc2c(c1)Nc1ccccc1S2
EC50 [7]: < 0.1 µM (active)
EC50 [8]: > 60 µM (not active)
IC50 (NADPH oxidase 1 [9]): 0.915 µM (active)
IC50 (NADPH oxidase 1 [10]): 0.054 µM (active)
IC50 [11]: 45 µM (active)

COc1cccc(-c2nc(-c3ccc(NC(=O)Cc4ccccc4OC)cc3)no2)c1
IC50 [12]: 0.733 µM (active)
IC50 [13]: > 35 µM (not active)

O=[N+]([O-])c1ccc2[nH]c(CCCc3nc4cc([N+](=O)[O-])ccc4[nH]3)nc2c1
IC50 [14]: 6.53 µM (active)
IC50 (SUMO-activating enzyme): > 100 µM (inactive)

COc1ccc(C(CC(=O)c2ccc(C)cc2)Nc2ccc([N+](=O)[O-])cc2)cc1 (stereo not given)
IC50 [15]: 2.05 µM (active)
IC50 [16]: > 69.5 µM (inactive)
IC50 [17]: > 50 µM (not active)
IC50 [18]: 26.8 µM (inactive)

COc1ccc(-c2nsc3c(N4CCCCC4)ncnc23)cc1
AC50 (Cytochrome P450 2D6): 15.8 µM (inconclusive)
AC50 (Cytochrome P450 2C9): 5.01 µM (inconclusive)
EC50 [19]: 4.6 µM (active)
EC50 (HT-1080): > 50 µM (not active)

COc1ccc(NC(=O)C(=O)NNC(=O)c2ccc(Cl)cc2Cl)cc1
EC50 [20]: 0.5 µM (active)
EC50 [21]: 2.28 µM (active)
EC50 (cells [22]): > 350 µM (not active)
EC50 (cells [23]): > 350 µM (not active)
EC50 [24]: > 150 µM (inactive)

COc1ccccc1NC(=O)Nc1cccnc1
EC50 [25]: 2.25 µM (active)

CC1CCCC(C)N1C(=C(Cl)Cl)C(=C1SCCS1)[N+](=O)[O-] (stereo not given)
AC50 [26]: > 100 µM (inactive)
EC50 (Ion channel NompC): > 29.9 µM (not active)
EC50 (Mucolipin-3): 6.91 µM (active)

Cc1cccc(/C=N/Nc2cc(N3CCOCC3)nc(N3CCOCC3)n2)c1
EC50 [7]: < 0.1 µM (active)
EC50 (cells [27]): 0.077 µM (active)
IC50 [28]: > 50 µM (not active)
EC50 [8]: 1.6 µM (active)
CC50 [29]: 24.6 µM (active)
IC50 [30]: 1.88 µM (active)
IC50 [31]: 0.692 µM (active)
IC50 [32]: > 50 µM (not active)

C[C@H]1CN([C@@H](C)CO)S(=O)(=O)c2ccc(-c3ccc(O)cc3)cc2O[C@H]1CN(C)Cc1ccc(-c2ccccc2)cc1
AC50 [33]: > 52 µM (inactive)

N#C[C@H]1[C@H](c2ccc(-c3cccc(F)c3)cc2)[C@@H](CO)N1C(=O)NC1CCCC1
AC50 [34]: 20.2 µM (active)

C[C@@H]1C[C@H]2[C@@H]3CCC4=CC(=O)C=C[C@]4(C)[C@@]3(Cl)[C@@H](O)C[C@]2(C)[C@@]1(OC(=O)c1ccco1)C(=O)CCl [MOMETASONE FUROATE]
IC50 [35]: > 10 µM (inactive)
IC50 [36]: > 10 µM (inactive)
